Data: patent publication US7423017B2, “Method for treating cartilage disorders” (Genentech, Inc., priority 1997, dated 2008)
Where two headings read alike, the source gives them in different places. Starred links: 1 amine or outer side, 2 acyl side, 3 side chain; linkers in the order of their positions; H or OH if unused. Positions of bridges follow the written chain, without caps; N, C: chain ends. Residues, ends and D or L forms follow the SMILES beside them. No end group written: not given here. Suc = O=C(CCC(=O)[*:2])[*:1]

Key:
IGFBP-3 [1] = target: T1, IGFBP-3 (Homo sapiens, UniProt P17936); assay: BIACORE competition assay: IGFBP-3 binding to immobilized IGF-1; settings: for IC50 (mut) / IC50 (wt): IGF-1 inhibition, wt = BP3-01-ox
T1 construct: made in house
Method: IGF-1 was immobilized on a dextran chip for inhibition assays using a BIACORE™ 2000 surface-plasmon-resonance device (BIAcore, Inc., Piscataway, N.J.) to measure free binding protein. IGF-1 was biotinylated as described above, and injected over a chip to which streptavidin had been coupled (BIAcore, Inc.) to give 400 to 800 RU (response units) of immobilized IGF-1. […] Serial dilutions of peptide were mixed with a constant concentration (40 nM) of IGFBP-3. After incubation for >1 hour at room temperature, an aliquot of 20 μL was injected at a flow rate of 20 μL/min over the IGF-1 chip. Following the injection, a response reading was taken to measure the relative amount of IGFBP-3 bound to the IGF-1.

[2] = tested on: human articular cartilage explants; assay: human articular cartilage explants from diseased joints: matrix synthesis (35S-sulfate uptake); format: cell-based
Method: The metacarpophalangeal joint of a six-month old pig was cultured as described above for bovine articular cartilage in Example 8. This explant was cultured in media alone or in media with D12K, D12R, or wild-type IGF-1 (at 10 nM) alone or in the presence of IL-1α at 1 ng/ml, as described above. Human explants were from patients undergoing joint replacement surgery. Articular cartilage was harvested, aliquoted (40-45 mg/tube) and cultured as above. […] Fresh media was added on days 0, 1, 2, and 3. Matrix breakdown was determined by measuring the amount of proteoglycans in the media using the DMMB assay as set forth above. Matrix (proteoglycan) synthesis was determined by measuring ^35S-sulfate uptake as set forth above.
Human articular cartilage explants were cultured in media or treated with IGF-1 by itself or in combination with either BP3-40 or BP3-15 at 0.1 mg/ml as set forth above. Matrix breakdown was determined by measuring the release of proteoglycans into media as described above. Matrix synthesis was determined by counting the amount of ^35S-sulfate incorporated into the cartilage tissue as described above.
The same Material and Methods (for human tissue) were used as described above, using articular cartilage explants from human joints removed from patients undergoing joint replacement. These explants were cultured with IGF-1 alone at 40 ng/ml, or IGF-1 with BP1-17, BP3-15, or BP1-16 (0.1 mg/ml), or IGF-1 with buffer (HEPES).

IGFBP-3 [3] = target: T1, IGFBP-3; assay: competitive phage ELISA of IGF-1 mutants, IGFBP-3; format: binding
Method: (§1) An alanine-scanning mutagenesis approach (Cunningham and Wells, Science, 244: 1081-1085 (1989); U.S. Pat. No. 5,834,250) was used to remove that portion of each side chain of IGF-1 beyond the beta carbon. The contribution of these atoms to the free energy of binding of the IGF-1 analog to IGFBP-1 or to IGFBP-3 was then assessed by competitive phage ELISA. In this assay, IGFBP-1 or IGFBP-3 is used to inhibit IGF-phage mutants from binding to an IGFBP-1- or IGFBP-3-coated immunosorbant plate.
(§2) Immunosorbent plates (Nunc, MAXISORP™, 96 wells) were coated with 100 μl/well of 1 μg/ml IGFBP-1 or IGFBP-3 in PBS buffer pH 7.2 at 4° C. overnight. The plates were then blocked with 0.5% TWEEN 20™/PBS (also used as binding buffer) for 2 hours at room temperature (proteinaceous blocking agents like bovine serum albumin were avoided to prevent potential IGF or IGFBP contamination). E. coli cells (XL1-Blue, Stratagene) freshly transformed with phagemid vector were grown overnight in 5 mL 2YT medium (Sambrook et al., supra) in the presence of M13-VCS helper phage (Stratagene). Phage particles were harvested and resuspended in PBS buffer as described in Lowman, H. B., “Phage Display of Peptide Libraries on Protein Scaffolds,” in Cabilly, S. (ed.), Combinatorial Peptide Library Protocols (Humana Press Inc.: Totowa, N.J., 1998), pp. 249-264. Then phage concentrations were normalized to yield a maximal ELISA signal of 0.2-0.4 for each mutant (Lowman, in Cabilly, S. (ed.), supra). Threefold serial dilutions of soluble competitor were prepared on non-absorbent microtiter plates (Nunc, F, 96 wells) with binding buffer (0.5% TWEEN 20™/PBS) containing phage at the previously determined concentrations. The dilution range of competitor protein extended over six orders of magnitude, starting at 5 μM for IGFBP-1 and 500 nM for IGFBP-3. After blocking, the plates containing immobilized target were washed with 0.05% TWEEN™/PBS buffer and subsequently incubated with 80 μl/well of the premixed phage-competitor solutions for 1 hour at room temperature. After washing, bound phage was detected with 80 μl/well of a solution containing a primary rabbit anti-phage polyclonal antibody and a secondary goat anti-rabbit monoclonal antibody-horseradish peroxidase conjugate in 0.5% TWEEN 20™/PBS. o-Phenylenediamine (Sigma) and tetramethylbenzidine (Kirkegaard and Perry) were used as chromogenic substrates, resulting in product detection at 492 and 450 nm, respectively. IC50 values were determined by fitting the binding data to a generic saturation curve (Lowman, in Cabilly, S. (ed.), supra). At least two individual clones of each IGF-1 mutant were assayed. Numbers in Table XIII represent mean±standard deviation of individually assessed IC50 values.

IGFBP-1 [4] = target: T2, IGFBP-1 (Homo sapiens, UniProt P08833); assay: competitive phage ELISA of IGF-1 mutants, IGFBP-1; format: binding; parameters: made in house; host or cells: CHO cells
T2 sequence (P08833 26-259): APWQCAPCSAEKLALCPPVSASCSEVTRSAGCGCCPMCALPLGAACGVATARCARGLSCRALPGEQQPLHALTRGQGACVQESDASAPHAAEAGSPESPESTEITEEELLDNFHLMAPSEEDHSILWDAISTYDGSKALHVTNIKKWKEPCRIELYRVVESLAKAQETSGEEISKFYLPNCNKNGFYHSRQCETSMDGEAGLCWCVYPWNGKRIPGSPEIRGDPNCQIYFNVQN
Method: as §1, §2

IGFBP-1 [5] = target: T2, IGFBP-1; assay: BIACORE kinetics: IGFBP-1 binding to immobilized IGF-1 variants; parameters: made in house; host or cells: CHO cells; settings: Table XVI; Y31C immobilized via disulfide linkage
Method: The binding affinities of the IGF variants for IGFBP-1 and IGFBP-3 were determined using a BIACORE™-2000 real time kinetic interaction analysis system (Biacore, Inc., Piscataway, N.J.) to measure association (ka) and dissociation (kd) rates. Carboxymethylated dextran biosensor chips (CM5, BIAcore Inc.) were activated with EDC (N-ethyl-N′-(3-dimethylaminopropyl)-carbodiimide hydrochloride) and NHS(N-hydroxysuccinimide) according to the supplier's instructions. For immobilization, IGF mutants in 20 mM sodium acetate, pH 4.8, were injected onto the biosensor chip at a concentration of 50 μg/ml to yield approximately 450-600 RU's (resonance-responce units) of covalently-coupled protein. Unreacted groups were blocked with an injection of 1 M ethanolamine. Kinetic measurements were carried out by injecting two-fold serial dilutions (starting at 1 μM) of either IGFBP-1 or IGFBP-3 in running buffer (PBS, 0.05% TWEEN 20™, 0.1% ovalbumin, 0.1% sodium azide) at 25 °C using a flow rate of 20 μl/min. Association rates (ka) and dissociation rates (kd) were calculated separately using a 1:1 Langmuir™ association model in the BIACORE™ evaluation software v. 3.0. The equilibrium dissociation constant (KD) was calculated as kd/ka.
For measurements of IGFBP-1 binding to IGF-1, kinetics experiments were conducted using a single-cysteine IGF-1 variant, Y31C, that was immobilized onto the sensor chip surface via a disulfide linkage (BIACORE™ System Manual Supplement, 5a-1, Pharmacia (1991)).

IGFBP-1 [6] = assay: competitive phage ELISA of IGF-1 mutants, IGFBP-1; format: binding, human; settings: relative IC50 IGFBP-1/relative IC50 IGFBP-3
Method: as §1, §2

[7] = IC50 mut/IC50 G1S-A70V, listed as Ala(1-3)-IGF-1

T1 sequence (P17936 28-291): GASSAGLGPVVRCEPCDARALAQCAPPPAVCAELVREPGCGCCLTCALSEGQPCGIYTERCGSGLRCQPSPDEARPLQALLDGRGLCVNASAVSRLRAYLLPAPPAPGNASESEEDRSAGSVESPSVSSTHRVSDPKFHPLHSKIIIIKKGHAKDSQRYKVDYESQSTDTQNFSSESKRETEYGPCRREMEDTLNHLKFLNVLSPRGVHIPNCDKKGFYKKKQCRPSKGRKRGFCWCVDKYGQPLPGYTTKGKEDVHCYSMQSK

For WPVAEWYLCN [BP3-24], the “IC50 (mut) / IC50 (wt)” value (IGFBP-3 [1]) was over 500.

For `CC(C)C[C@@H]1NC(=O)[C@H](CC(C)C)NC(=O)[C@H](CC(C)C)NC(=O)[C@H](CC(=O)O)NC(=O)[C@@H]2CCCN2C(=O)[C@H](CCCNC(=N)N)NC(=O)[C@H](C(C)C)NC(=O)[C@H](CC(C)C)NC(=O)[C@H](CCC(N)=O)NC(=O)[C@@H](NC(=O)CCC(=O)O)CSSC[C@@H](C(=O)N[C@@H](CCC(N)=O)C(N)=O)NC1=O` [BP3-107] (Suc-CQLVRPDLLLCQ-NH2; disulfide 1-11), the IC50 (IGFBP-3 [1]; inhibition of 40 nM IGFBP-3 binding to immobilized IGF-1) was 100 µM.

For `CSCC[C@H](NC(=O)[C@H](CC(N)=O)NC(=O)[C@@H]1CSSC[C@H](NC(=O)[C@@H](NC(=O)[C@H](CCC(=O)O)NC(=O)[C@H](CCC(=O)O)NC(=O)[C@H](CO)NC(=O)[C@H](C)N)C(C)C)C(=O)N[C@@H](Cc2c[nH]c3ccccc23)C(=O)N2CCC[C@H]2C(=O)N[C@@H](C(C)C)C(=O)N[C@@H](C)C(=O)N[C@@H](CCC(=O)O)C(=O)N[C@@H](Cc2c[nH]c3ccccc23)C(=O)N[C@@H](Cc2ccc(O)cc2)C(=O)N[C@@H](CC(C)C)C(=O)N1)C(=O)N[C@@H](Cc1c[nH]c2ccccc12)C(=O)NCC(=O)N[C@@H](CCCNC(=N)N)C(=O)O` [4D3.3P] (H-ASEEVCWPVAEWYLCNMWGR-OH; disulfide 6-15; N-terminus and C-terminus assumed), the IC50 (IGFBP-3 [1]) was 5.6 µM and the “IC50 (mut) / IC50 (wt)” value (IGFBP-3 [1]) was 2.8.

For “E3A/F49A: double mutant of IGF-1 combining point mutations E3A and F49A”, the “matrix synthesis in diseased human articular cartilage” value ([2]; 40 ng/ml) was “stimulated matrix synthesis in diseased human articular cartilage”.

With `CSCC[C@H](NC(=O)[C@H](CC(N)=O)NC(=O)[C@@H]1CSSC[C@H](NC(=O)[C@@H](N)C(C)C)C(=O)N[C@@H](Cc2c[nH]c3ccccc23)C(=O)N2CCC[C@H]2C(=O)N[C@@H](C(C)C)C(=O)N[C@@H](C)C(=O)N[C@@H](CCC(=O)O)C(=O)N[C@@H](Cc2c[nH]c3ccccc23)C(=O)N[C@@H](Cc2ccc(O)cc2)C(=O)N[C@@H](CC(C)C)C(=O)N1)C(=O)N[C@@H](Cc1c[nH]c2ccccc12)C(=O)NCC(=O)O` [BP3-16] (H-VCWPVAEWYLCNMWG-OH; disulfide 2-11; N-terminus and C-terminus assumed) the IC50 (IGFBP-3 [1]) was 30 µM.

`CC[C@H](C)[C@@H]1NC(=O)[C@H](Cc2ccc(O)cc2)NC(=O)CNC(=O)[C@H](CCC(N)=O)NC(=O)[C@H](Cc2c[nH]cn2)NC(=O)[C@H](CCCNC(=N)N)NC(=O)[C@H](CC(=O)O)NC(=O)[C@H](Cc2c[nH]c3ccccc23)NC(=O)[C@@H](NC(=O)[C@@H](NC(=O)[C@H](CCC(=O)O)NC(=O)[C@H](Cc2c[nH]c3ccccc23)NC(=O)[C@H](C)N)C(C)C)CSSC[C@@H](C(=O)N[C@H](C(=O)N[C@H](C(=O)N[C@@H](CC(=O)O)C(=O)N[C@@H](CO)C(=O)O)[C@@H](C)O)[C@@H](C)O)NC1=O` [BP3-4D3.11DEL] (H-AWEVCWDRHQGYICTTDS-OH; disulfide 5-14; N-terminus and C-terminus assumed) showed an IC50 (IGFBP-3 [1]) of 80 µM.

In the case of `CC(C)C[C@@H]1NC(=O)[C@H](Cc2ccc(O)cc2)NC(=O)[C@H](Cc2c[nH]c3ccccc23)NC(=O)[C@H](CCC(=O)O)NC(=O)[C@H](C)NC(=O)[C@H](C(C)C)NC(=O)[C@@H]2CCCN2C(=O)[C@H](Cc2c[nH]c3ccccc23)NC(=O)[C@@H](N)CSSC[C@@H](C(=O)N[C@@H](CC(N)=O)C(=O)O)NC1=O` [BP3-25] (H-CWPVAEWYLCN-OH; disulfide 1-10; N-terminus and C-terminus assumed), the IC50 (IGFBP-3 [1]) is reported as 46 µM and the “IC50 (mut) / IC50 (wt)” value (IGFBP-3 [1]) is reported as 23.

For “Y31C: point mutant of IGF-1 with a single unpaired cysteinyl thiol for site-specific immobilization”, the “IGFBP-3 IC50” value (IGFBP-3 [3]; phage display, soluble IGFBP-3 competitor) was “wild-type-like affinities”, the “IGFBP-1 IC50” value (IGFBP-1 [4]; phage display, soluble IGFBP-1 competitor) was “wild-type-like affinities” and the IGFBP-1 ka (IGFBP-1 [5]) was 3.9 ± 0.4 ×10^4 M^−1. The IGFBP-1 kd (IGFBP-1 [5]) was 3.8 ± 0.1 ×10^−4 s^−1.

“CRAGPLQWLCEK-nh2 (CRAGPLQWLCEK-NH2; disulfide 1-10 (inferred)) [BP1-17]” was tested, and the “matrix synthesis, IGF-1 in combination with peptide” value ([2]; IGF-1 40 ng/ml, peptide 0.1 mg/ml) was “to some extent”.

B1: Ala(1-3)-IGF: triple alanine mutant substituting the first three N-terminal amino acids of IGF-1 (protein)
chain: AAATLCGAELVDALQFVCGDRGFYFNKPTGYGSSSRRAPQTGIVDECCFRSCDLRRLEMYCAPLKPAKSVSGGGSGSGDFDYEKMANANKGAMTENADENALQSDAKGKLDSVATDYGAAIDGFIGDVSGLANGNGATGDFAGSNSQMAQVGDGDNSPLMNNFRQYLPSLPQSVECRPFVFSAGKPYEFSIDCDKINLFRGVFAFLLYVATFMYVFSTFANILRNKES
B1 was tested, and the relative specificity (IGFBP-1 [6]) was 7.3, the “IGFBP-3 relative IC50” value (IGFBP-3 [3]; [7]) was “no change in IGFBP-3 affinity” and the “IGFBP-1 Relative IC50” value (IGFBP-1 [4]; [7]) was “decreased IGFBP-1 affinity similar to E3A”.
